Starred links: 1 amine or outer side, 2 acyl side, 3 side chain; linkers in the order of their positions; H or OH if unused. Positions of bridges follow the written chain, without caps; N, C: chain ends. Non-standard residues stand in square brackets, D forms with d. Residues, ends and D or L forms follow the SMILES beside them. *: point of attachment. hPhe(3,5-F2-4-CF3) = N[C@@H](CCc1cc(F)c(C(F)(F)F)c(F)c1)C(=O)O; hPhe(3-Cl-4-CF3) = N[C@@H](CCc1ccc(C(F)(F)F)c(Cl)c1)C(=O)O; hPhe(3-F,4-CF3) = N[C@@H](CCc1ccc(C(F)(F)F)c(F)c1)C(=O)O; NMePhe(4-CF3) = CN[C@@H](Cc1ccc(C(F)(F)F)cc1)C(=O)O; Pro(cis-4-Ph) = O=C(O)[C@@H]1C[C@H](c2ccccc2)CN1; NMePhe(4-I) = CN[C@@H](Cc1ccc(I)cc1)C(=O)O; hPhe(4-Cl) = N[C@@H](CCc1ccc(Cl)cc1)C(=O)O; NMedβ3hAla = C[C@H](CC(=O)[*:2])N(C)[*:1]; NMeAla(cPent) = CN[C@@H](CC1CCCC1)C(=O)O; NMeGly(cPent) = CN[C@H](C(=O)O)C1CCCC1; Pro(4,4-F2) = O=C(O)[C@@H]1CC(F)(F)CN1; NMeGly(cBu) = CN[C@H](C(=O)O)C1CCC1; NMeCha = CN[C@@H](CC1CCCCC1)C(=O)O; NMeChg = CN[C@H](C(=O)O)C1CCCCC1; NMeI = CC[C@H](C)[C@H](NC)C(=O)O; NMeT = CN[C@H](C(=O)O)[C@@H](C)O; NMeD = CN[C@@H](CC(=O)O)C(=O)O; NMeHpra = C#CCC[C@H](NC)C(=O)O; NMeL = CN[C@@H](CC(C)C)C(=O)O; NMeV = CN[C@H](C(=O)O)C(C)C; Azetidin(1-yl) = C1CN(*)C1; NMeA = CN[C@@H](C)C(=O)O; Piperidide = C1CCN(*)CC1; Pyrrolidide = C1CCN(*)C1; Ac5c = NC1(C(=O)O)CCCC1; Aze = O=C(O)[C@@H]1CCN1; Sar = CNCC(=O)O

The test system of the test is Human pancreatic cancer cell line AsPC-1. Nature of the test: Measurement of AsPC-1 cell growth inhibition (AsPC-1 CGI). Type of test: cell-based. Conditions: 96 h. An outline of the steps:
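AsPC-1 cells in 15% FBS RPMI-1640 were exposed to test compound for 96 hours at 37° C, with CellTiter-Glo as endpoint.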
As a reminder, the IC50 is the concentration needed to halve the response being measured. In turn, `CC[C@H](C)[C@@H]1NC(=O)[C@H](CC(C)C)N(C)C(=O)C[C@@H](C)N(C)C(=O)[C@H](C2CCCC2)N(C)C(=O)C2(CCCC2)NC(=O)[C@@H]2CC(F)(F)CN2C(=O)[C@H](CCc2cc(F)c(C(F)(F)F)c(F)c2)NC(=O)CN(C)C(=O)[C@H](Cc2ccc(C(F)(F)F)cc2)N(C)C(=O)[C@@H]2CCN2C(=O)[C@H](C)N(C)C1=O` [Compound 900] (cyclo([Ac5c][NMeGly(cPent)][NMedβ3hAla][NMeL]I[NMeA][Aze][NMePhe(4-CF3)][Sar][hPhe(3,5-F2-4-CF3)][Pro(4,4-F2)])) displayed a 50% inhibitory concentration (IC50) of 20 to 50 nM.

On to `CC[C@H](C)[C@@H]1NC(=O)[C@H](CC(C)C)N(C)C(=O)C[C@@H](C)N(C)C(=O)[C@H]([C@@H](C)CC)N(C)C(=O)C2(CCCC2)NC(=O)[C@@H]2CCCN2C(=O)[C@H](CCc2ccc(C(F)(F)F)c(F)c2)NC(=O)CN(C)C(=O)[C@H](C2CCCC2)N(C)C(=O)[C@@H]2CCN2C(=O)[C@H](C)N(C)C1=O` [Compound 909] (cyclo([Ac5c][NMeI][NMedβ3hAla][NMeL]I[NMeA][Aze][NMeGly(cPent)][Sar][hPhe(3-F,4-CF3)]P)), for which the IC50 lay in the range of 50 to 100 nM.

The compound `CC[C@H](C)[C@@H]1NC(=O)[C@H](CC(C)C)N(C)C(=O)C[C@@H](C(=O)N2CCCCC2)N(C)C(=O)[C@H](C(C)C)N(C)C(=O)C2(CCCC2)NC(=O)[C@@H]2CCCN2C(=O)[C@H](CCc2ccc(Cl)cc2)NC(=O)CN(C)C(=O)[C@H](CC2CCCCC2)N(C)C(=O)[C@@H]2CCN2C(=O)CN(C)C1=O` [Compound 916] ([NMeL]I[Sar][Aze][NMeCha][Sar][hPhe(4-Cl)]P[Ac5c][NMeV][NMeD]-Piperidide; lactam N-11) showed an IC50 of 100 to 500 nM.

As to `CC[C@H](C)[C@@H]1NC(=O)[C@H](CC(C)C)N(C)C(=O)C[C@@H](C(=O)N2CCCC2)N(C)C(=O)[C@H](C2CCCC2)N(C)C(=O)C2(CCCC2)NC(=O)[C@@H]2CCCN2C(=O)[C@H](CCc2ccc(C(F)(F)F)c(F)c2)NC(=O)CN(C)C(=O)[C@H](C2CCCC2)N(C)C(=O)[C@@H]2CCN2C(=O)[C@H](C)N(C)C1=O` [Compound 918] ([NMeL]I[NMeA][Aze][NMeGly(cPent)][Sar][hPhe(3-F,4-CF3)]P[Ac5c][NMeGly(cPent)][NMeD]-Pyrrolidide; lactam N-11), the IC50 was 20 to 50 nM.

Turning to `CC[C@H](C)[C@@H]1NC(=O)[C@H](CC2CCCC2)N(C)C(=O)C[C@@H](C(=O)N2CCC2)N(C)C(=O)[C@H](C2CCCC2)N(C)C(=O)C2(CCCC2)NC(=O)[C@@H]2CCCN2C(=O)[C@H](CCc2ccc(C(F)(F)F)c(Cl)c2)NC(=O)CN(C)C(=O)[C@H](CC2CCCCC2)N(C)C(=O)[C@@H]2CCN2C(=O)[C@H](C)NC1=O` [Compound 921] ([NMeAla(cPent)]IA[Aze][NMeCha][Sar][hPhe(3-Cl-4-CF3)]P[Ac5c][NMeGly(cPent)][NMeD]-{Azetidin(1-yl)}; lactam N-11), the IC50 was 20 to 50 nM.

`CC[C@H](C)[C@@H]1NC(=O)[C@H](CC(C)C)N(C)C(=O)C[C@@H](C(=O)N2CCCCC2)N(C)C(=O)[C@H](C(C)C)N(C)C(=O)C2(CCCC2)NC(=O)[C@@H]2CCCN2C(=O)[C@H](CCc2ccc(C(F)(F)F)c(Cl)c2)NC(=O)CN(C)C(=O)[C@H]([C@@H](C)OC)N(C)C(=O)[C@@H]2CCN2C(=O)[C@H](C)N(C)C1=O` [Compound 929] ([NMeL]I[NMeA][Aze][NMeT](Me)[Sar][hPhe(3-Cl-4-CF3)]P[Ac5c][NMeV][NMeD]-Piperidide; lactam N-11) had an IC50 of 100 to 500 nM.

As to `CC[C@H](C)[C@@H]1NC(=O)[C@H](C2CCC2)N(C)C(=O)C[C@@H](C(=O)N2CCCCC2)N(C)C(=O)[C@H]([C@@H](C)CC)N(C)C(=O)C2(CCCC2)NC(=O)[C@@H]2CCCN2C(=O)[C@H](CCc2ccc(C(F)(F)F)c(Cl)c2)NC(=O)CN(C)C(=O)[C@H](CC2CCCCC2)N(C)C(=O)[C@@H]2CCN2C(=O)[C@H](C)N(C)C1=O` [Compound 959] ([NMeGly(cBu)]I[NMeA][Aze][NMeCha][Sar][hPhe(3-Cl-4-CF3)]P[Ac5c][NMeI][NMeD]-Piperidide; lactam N-11), the IC50 fell in the range of 20 to 50 nM.

Take `CC[C@H](C)[C@@H]1NC(=O)[C@H](CC(C)C)N(C)C(=O)C[C@@H](C(=O)N2CCCCC2)N(C)C(=O)[C@H](C2CCCCC2)N(C)C(=O)C2(CCCC2)NC(=O)[C@@H]2C[C@H](c3ccccc3)CN2C(=O)[C@H](CCc2ccc(C(F)(F)F)c(Cl)c2)NC(=O)CN(C)C(=O)[C@H](CC2CCCCC2)N(C)C(=O)[C@@H]2CCN2C(=O)CN(C)C1=O` [Compound 960] ([NMeL]I[Sar][Aze][NMeCha][Sar][hPhe(3-Cl-4-CF3)][Pro(cis-4-Ph)][Ac5c][NMeChg][NMeD]-Piperidide; lactam N-11): the IC50 is 100 to 500 nM.

With `C#CCC[C@H]1C(=O)N[C@@H]([C@@H](C)CC)C(=O)N(C)[C@@H](C)C(=O)N2CC[C@H]2C(=O)N(C)[C@@H](Cc2ccc(I)cc2)C(=O)N(C)CC(=O)N[C@@H](CCc2ccc(C(F)(F)F)c(Cl)c2)C(=O)N2CCC[C@H]2C(=O)NC2(CCCC2)C(=O)N(C)[C@@H](C2CCCCC2)C(=O)N(C)[C@H](C)CC(=O)N1C` [Compound 961] (cyclo([Ac5c][NMeChg][NMedβ3hAla][NMeHpra]I[NMeA][Aze][NMePhe(4-I)][Sar][hPhe(3-Cl-4-CF3)]P)), the IC50 is 100 to 500 nM.

Source of the values: patent US12371454B2, “Cyclic peptide compound having Kras inhibitory action” (priority 2019, dated 2025).
